Test results published in US12377100B2 (GILEAD SCIENCES, INC., priority 2015, dated 2025).

Key:
[1] = MT-4 cytotoxicity assay, Cell Titer Glo, 5 days; type: cell-based, human; settings: human, MT-4 cells; MT-4, five days incubation, intracellular ATP; read-out: CC50 (MT4)
Excerpt: (§1) To assess potential off-target toxicity of certain compounds disclosed herein, the in vitro cytotoxicity of those compounds was profiled using a panel of 5 cell lines with various tissue origins. Compound cytotoxicity was examined in hepatoma-derived Huh-7 and HepG2 cells, prostate carcinoma-derived PC-3 cells, lymphoma derived MT-4 cells and a normal diploid lung cell line MRC-5. HepG2 and PC-3 cells used were adapted to grow in glucose-free galactose-containing medium. These cells have a relatively higher sensitivity to inhibitors of mitochondrial oxidative phosphorylation compared to the same cells maintained in standard glucose-containing culture medium (Marroquin et al., Toxicol. Sci. 2007; 97 (2):539-47). Cell viability was determined by measuring intracellular ATP levels following five days of continuous incubation with test compounds.
(§2) The human hepatoma Huh-7 cell line was obtained from ReBLikon GmbH (Mainz, Germany) {20879}. The MT-4 cell line (HTLV-1 transformed, human T lymphoblastoid cells) was obtained from the NIH AIDS Reagent program (Bathesda, MD). The human hepatoblastoma cell line HepG2, human prostate carcinoma cell line PC-3, and normal fetal lung derived MRC-5 cells were obtained from the American Type Culture Collection (ATCC, Manassas, VA).
(§3) Huh-7 cells were maintained in Dulbecco's Modified Eagle Medium (DMEM) supplemented with 10% fetal bovine serum (FBS, Hyclone, Logan, UT), 1% non-essential amino acids (Gibco, Carlsbad, CA). PC-3 and HepG2 cells were adapted to grow in 0.2% galactose-containing, glucose-free Dulbecco's Modified Eagle Medium (DMEM) supplemented with 10% fetal bovine serum (FBS, Hyclone, Logan, UT), 1% non-essential amino acids (Gibco, Carlsbad, CA), 1% Pyruvate (Cellgro), 1% Glutamax (Invitrogen, Carlsbad, CA). Galactose-adapted cells were maintained in the same culture medium. MRC-5 cells were maintained in Eagle's Minimum Essential Medium (EMEM) supplemented with 10% fetal bovine serum (FBS, Hyclone, Logan, UT). MT-4 cells were maintained in RPMI-1640 supplemented with 10% fetal bovine serum (FBS, Hyclone, Logan, UT). All cell culture media were also supplemented with 100 Units/mL penicillin, 100 μg/mL streptomycin (Gibco).
(§4) For the MT-4 cytotoxicity assay, 0.4 μL of serially diluted compounds were added to 40 μl of cell maintenance media in 384-well black, solid bottom plate using a Biomek FX workstation (Beckman Coulter). Two thousand cells in 35 μL were added to each well using a Biotek uFlow Workstation (Biotek). Each assay plate contained 10 μM Puromycin (final concentration) and 0.5% DMSO in RPMI-1640 as positive and negative controls, respectively. Assay plates were incubated for five days at 37° C. in an incubator set at 5% CO2 and 90% humidity. After five days, 22 μL of Cell Titer Glo reagent (Promega) was added to the assay plates with a Biotek uFlow Workstation. Plates were subsequently placed on a Perkin Elmer Envision Plate Reader for five minutes before the luminescence signal was read.
(§5) CC50 values were defined as the compound concentration that caused a 50% decrease in luminescence signal, and were calculated by non-linear regression using Pipeline Pilot software by applying a four parameter fit equation (Accelrys, San Diego, CA). Individual CC50 values are listed as μM concentrations.

MRC-5 cells = test: Cytotoxicity assay, MRC-5 cells, Cell Titer Glo, 5 days; type: cell-based, human; settings: MRC-5, five days incubation, intracellular ATP; read-out: CC50 MRC5 CTG 5D
Excerpt: as §1, §2, §3
(§6) Using a Biotek uFlow Workstation (Biotek, Winooski, VT), 1500 HepG2, 1500 PC-3, 500 Huh7 or 1500 MRC-5 cells in 90 μL of culture media were dispensed into each well of black polystyrene tissue culture-treated 384-well plates. Plated cells were incubated for 24 hours in an incubator at 37° C., 5% CO2 and 90% humidity. Compound serial dilutions were performed in 100% DMSO in 384-well polypropylene (high recovery) plates on a Biomek FX Workstation (Beckman Coulter, Fullerton, CA). After 3-fold serial dilutions, 0.4 μL of compounds were transferred into 384-well plates containing cells using a Velocity 11 system equipped with a Bravo 384-well pipettor. The DMSO concentration in the final assay plates was 0.44% (v/v). Cells were incubated with compound(s) for five days at 37° C. Puromycin (44 μM final concentration) and DMSO (0.44%, v/v) were used as a positive and negative controls, respectively
(§7) At the end of the incubation period the cytotoxicity assay was performed as follows: Media from 384-well cell culture plates were aspirated with a Biotek EL405 plate-washer (Biotek) and cells were washed with 100 μL PBS once. Twenty microliters of Cell Titer Glo (Promega, Madison, WI) was added to each well of the plates with a Biotek uFlow liquid dispenser. Plates were incubated for 15 minutes at room temperature before luminescence was measured with a Perkin Elmer Envision Plate Reader (Perkin Elmer, Waltham, MA).
as §5

IFNα = test: PBMC cytokine profiling assay, IFNα induction; type: cell-based; settings: human PBMCs, 24 hours incubation
Outline: (§8)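 Cryopreserved healthy-donor human PBMCs (100k cells/well) were exposed for 24 h at 37 °C to a 10-point half-log compound series in 0.5% final DMSO. Secreted cytokines in the conditioned medium were quantified by MSD electrochemiluminescence, with TNFα samples diluted 1:9. AC50 was fitted by non-linear regression on percent activation normalised to plate controls.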

IL12p40 = test: PBMC cytokine profiling assay, IL12-p40 induction; type: cell-based; settings: human PBMCs, 24 hours incubation
Outline: as §8

TNFα = test: PBMC cytokine profiling assay, TNFα induction; type: cell-based; settings: human PBMCs, 24 hours incubation
Outline: as §8

Huh-7 cells = test: Cytotoxicity assay, Huh-7 cells, Cell Titer Glo, 5 days; type: cell-based, human; settings: Huh-7, five days incubation, intracellular ATP; read-out: CC50 HUH7 CTG 5D
Excerpt: as §1, §2, §3, §6, §7, §5

[2] = as above; type: cell-based, human; settings: human, Huh-7 cells; Huh-7, five days incubation, intracellular ATP; read-out: CC50 HUH7 CTG 5D
Excerpt: as §1, §2, §3, §6, §7, §5

[3] = Cytotoxicity assay, galactose-adapted HepG2 cells, Cell Titer Glo, 5 days; type: cell-based; settings: human, galactose-adapted HepG2, five days incubation, intracellular ATP, read-out: CC50 GALHEPG2 CTG 5D
Excerpt: as §1, §2, §3, §6, §7, §5

[4] = Cytotoxicity assay, galactose-adapted PC-3 cells, Cell Titer Glo, 5 days; type: cell-based; settings: human, galactose-adapted PC-3, five days incubation, intracellular ATP, read-out: CC50 GALPC3 CTG 5D
Excerpt: as §1, §2
as §3, with “(Gibco). […]” for “(Gibco).”
At the end of the incubation period the cytotoxicity assay was performed as follows: Media from 384-well cell culture plates were aspirated with a Biotek EL405 plate-washer (Biotek) and cells were washed with 100 μL PBS once. […] Plates were incubated for 15 minutes at room temperature before luminescence was measured with a Perkin Elmer Envision Plate Reader (Perkin Elmer, Waltham, MA). […]

[5] = Cytotoxicity assay, MRC-5 cells, Cell Titer Glo, 5 days; type: cell-based, human; settings: human, MRC-5 cells; MRC-5, five days incubation, intracellular ATP; read-out: CC50 MRC5 CTG 5D
Excerpt: as §1, §2, §3, §6, §7, §5

MT-4 cells = test: MT-4 cytotoxicity assay, Cell Titer Glo, 5 days; type: cell-based, human; settings: MT-4, five days incubation, intracellular ATP; read-out: CC50 (MT4)
Excerpt: as §1, §2, §3, §4, §5

Row | SMILES | CC50 at 5 days [1] [µM] | CC50 (MRC-5 cells) [µM] | AC50 (IFNα) [µM] | AC50 (IL12p40) [µM] | AC50 (TNFα) [µM] | CC50 (Huh-7 cells) [µM] | AC50 (IFNα; Homo sapiens, PBMC, 24 h) [µM] | AC50 (IL12p40; Homo sapiens, PBMC, 24 h) [µM] | AC50 (TNFα; Homo sapiens, PBMC, 24 h) [µM] | CC50 at 5 days [2] [µM] | CC50 at 5 days [3] [µM] | CC50 at 5 days [4] [µM] | CC50 at 5 days [5] [µM] | CC50 (MT-4 cells) [µM] | AC50 (IFNα; PBMC) [µM] | AC50 (IL12p40; PBMC) [µM] | AC50 (TNFα; PBMC) [µM]
1 | CCCC[C@@](C)(Nc1nc(N)nc2cccnc12)C(C)O (single isomer, unassigned) [Example 97] | 50 | 44.4 | 26 | 0.13 | 0.14 | 44.4 | – | – | – | – | – | – | – | – | – | – | –
2 | CCCC[C@H](CO)Nc1nc(N)nc2cccnc12 [Example 15, (R)-2-((2-aminopyrido[3,2-d]pyrimidin-4-yl)amino)hexan-1-ol] | – | – | – | – | – | – | > 200 | 1.2 | 1.6 | 10.7 | – | – | – | – | – | – | –
3 | CCCC[C@H](CNC(C)=O)Nc1nc(N)nc2cccnc12 [Example 51, (R)—N-(2-((2-aminopyrido[3,2-d]pyrimidin-4-yl)amino)hexyl)acetamide] | – | 44.4 | – | – | – | 44.4 | > 200 | 0.33 | 0.37 | – | 44.4 | – | – | – | – | – | –
4 | CCCC[C@](C)(CO)Nc1nc(N)nc2cccnc12 [Example 59, (R)-2-((2-aminopyrido[3,2-d]pyrimidin-4-yl)amino)-2-methylhexan-1-ol] | 31.4 | – | – | – | – | – | 15 | 0.17 | 0.18 | 35.4 | 8.88 | 5.2 | 40.3 | – | – | – | –
5 | CCCC[C@](C)(CNC(C)=O)Nc1nc(N)nc2cccnc12 [Example 61] | – | 44.4 | – | – | – | 44.4 | 42.1 | 0.02 | 0.02 | – | 44.4 | – | – | – | – | – | –
6 | CCCC[C@](C)(CNC(C)=O)Nc1nc(N)nc2c(C)ccnc12 [Example 62] | – | 44.4 | – | – | – | 44.4 | – | – | – | – | 44.4 | – | – | 19.2 | > 50 | 0.91 | 1
7 | CCCC[C@@](C)(CO)Nc1nc(N)nc2cc(F)cnc12 [Example 64, (S)-2-((2-amino-7-fluoropyrido[3,2-d]pyrimidin-4-yl)amino)-2-methylhexan-1-ol] | 0.79 | – | – | – | – | – | 37.9 | 3.2 | 3.1 | – | – | 1.55 | – | – | – | – | –
8 | CCCC[C@](C)(CNC(C)=O)Nc1nc(N)nc2cc(Cl)cnc12 [Example 65, (R)—N-(2-((2-amino-7-chloropyrido[3,2-d]pyrimidin-4-yl)amino)-2-methylhexyl)acetamide] | 50 | 44.4 | – | – | – | 44.4 | > 50 | 0.09 | 0.11 | – | 44.4 | – | – | – | – | – | –
9 | CCCC[C@](CO)(Nc1nc(N)nc2cccnc12)C(F)(F)F [Example 93, (R)-2-((2-aminopyrido[3,2-d]pyrimidin-4-yl)amino)-2-(trifluoromethyl)hexan-1-ol] | – | – | – | – | – | 44.4 | > 50 | 0.4 | 0.44 | – | – | – | 38.8 | – | – | – | –
10 | CCCC[C@](C)(CNC(C)=O)Nc1nc(N)nc2cc(F)cnc12 [Example 101, (R)—N-(2-((2-amino-7-fluoropyrido[3,2-d]pyrimidin-4-yl)amino)-2-methylhexyl)acetamide] | 50 | 44.4 | – | – | – | 44.4 | > 50 | 0.11 | 0.1 | – | 44.4 | – | – | – | – | – | –
11 | CCC[C@@H](CO)Nc1nc(N)nc2cc(F)c(F)cc12 [X, reference compound] | 53.8 | – | – | – | – | – | 7.1 | 0.97 | 1.2 | 16.9 | 7.85 | 6.79 | 20.9 | – | – | – | –
12 | CCCC[C@H](CO)Nc1nc(N)nc2ccsc12 [Y, reference compound] | 1.42 | – | – | – | – | – | > 50 | 13 | 11.2 | 2.31 | 0.19 | 0.18 | 0.95 | – | – | – | –
